Where two headings read alike, the source gives them in different places. Numbered stars: 1 amine (or outer) side, 2 acyl side, 3 side chain; on linkers, the order of the positions; unused ones are H or OH. Square brackets hold non-standard residues; d marks the D form. Side chains are listed from the residue outwards. Peptide text beside a SMILES is read from it. * marks the point of attachment. C20 diacid = O=C(O)CCCCCCCCCCCCCCCCCCC(=O)*; γGlu = O=C(O)[C@H](CCC(=O)[*:2])N[*:1]; AEEA = NCCOCCOCC(=O)O; Aib = CC(C)(N)C(=O)O
Experiments:
[1] = biological target: GLP1R (Homo sapiens, UniProt P43220); experiment: hGLP1R potency, cAMP accumulation in CHO-K1 cells stably overexpressing hGLP1R; format: cell-based; design: host or cells: CHO-K1; settings: for EC50: cAMP accumulation; for SCTR EC50/GLP1R EC50 ratio: cAMP accumulation in CHO-K1 cells
Sequence of GLP1R (P43220 24-463): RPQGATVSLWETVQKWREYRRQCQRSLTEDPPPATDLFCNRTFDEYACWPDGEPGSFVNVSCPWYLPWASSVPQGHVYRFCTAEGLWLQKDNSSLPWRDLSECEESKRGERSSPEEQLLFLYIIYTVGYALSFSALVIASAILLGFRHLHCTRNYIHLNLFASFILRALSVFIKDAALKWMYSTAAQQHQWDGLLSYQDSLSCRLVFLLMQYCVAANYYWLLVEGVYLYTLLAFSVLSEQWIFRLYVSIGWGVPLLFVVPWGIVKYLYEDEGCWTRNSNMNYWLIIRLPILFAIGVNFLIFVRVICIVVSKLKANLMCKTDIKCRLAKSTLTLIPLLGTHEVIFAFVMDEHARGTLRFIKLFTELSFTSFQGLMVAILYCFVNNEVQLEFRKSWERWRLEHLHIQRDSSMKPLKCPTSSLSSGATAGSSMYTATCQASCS
Procedure, shortened: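 Thawed cells go straight into buffer containing 0.5 mM IBMX and 0.05% casein, get graded compound doses for 30 min at room temperature, and are then assayed for accumulated cAMP by time-resolved FRET. Human GLP-1(7-36) serves as positive control; EC50 is derived by nonlinear regression.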

[2] = Fibril formation of crude library peptides (Thioflavin T); format: physicochemical; design: key: average ThT fluorescence emission at 480 nm (ex 450 nm), raw units; settings: Physical stability of peptides
Procedure, shortened: (§1)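 Crude peptides at 267 μM in 50 mM sodium acetate pH 4.0 or 50 mM sodium phosphate pH 7.0, pre-incubated 1-2 h at room temperature, then 4 μM final ThT added. Turbidity read first as A600. ThT fluorescence (ex 450/em 480 nm) read every 10 min for 72 h at 40° C, with 5 min shaking before each read; fibril formation = average emission.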

[3] = Turbidity of crude library peptides (absorbance at 600 nm); format: physicochemical; settings: Physical stability of peptides
Procedure, shortened: as §1

[4] = biological target: SCTR (Homo sapiens, UniProt P47872); experiment: hSCTR potency, cAMP accumulation in CHO-K1 cells stably overexpressing hSCTR; format: cell-based; design: alternatively Euroscreen ES-712-AF; FAST-0161L; host or cells: CHO-K1; settings: cAMP accumulation
Sequence of SCTR (P47872 23-440): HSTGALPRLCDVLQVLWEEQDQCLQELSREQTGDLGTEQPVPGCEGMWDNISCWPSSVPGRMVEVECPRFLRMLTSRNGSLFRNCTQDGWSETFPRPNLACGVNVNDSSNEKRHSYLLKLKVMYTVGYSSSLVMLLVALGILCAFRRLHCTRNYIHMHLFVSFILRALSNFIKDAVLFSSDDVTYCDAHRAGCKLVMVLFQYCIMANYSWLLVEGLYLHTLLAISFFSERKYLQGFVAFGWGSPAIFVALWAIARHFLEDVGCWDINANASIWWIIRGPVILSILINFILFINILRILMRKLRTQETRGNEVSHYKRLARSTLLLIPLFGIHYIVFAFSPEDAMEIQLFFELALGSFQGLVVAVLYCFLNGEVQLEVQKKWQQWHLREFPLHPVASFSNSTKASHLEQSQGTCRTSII
Procedure, shortened: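 Read-out is TR-FRET cAMP detection, recorded one hour after reagent addition, in CHO-K1 cells stably overexpressing hSCTR. Cells in DPBS containing 0.05% casein and 0.5 mM IBMX are exposed to graded peptide doses for 30 min at room temperature, with human secretin as reference agonist.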

[5] = CHO-K1 cells overexpressing hGLP1R, read-out: hGLP1R pEC50 (converted)
[6] = selectivity for hGLP1R over hSCTR
[7] = CHO-K1 cells overexpressing hSCTR, read-out: hSCTR pEC50 (converted)
[8] = CHO-K1 cells stably overexpressing hGLP1R, read-out: hGLP1R potency (pEC50) (converted)
[9] = selectivity ratio, hSCTR vs hGLP1R
[10] = CHO-K1 cells stably overexpressing hSCTR, read-out: hSCTR potency (pEC50) (converted)

EC50 [1, 5] [nM] | SCTR EC50/GLP1R EC50 ratio [1, 6] | Fibril formation [2] | Turbidity (pH 7) [3] | EC50 [4, 7] [nM] | EC50 [1, 8] [nM] | SCTR EC50/GLP1R EC50 ratio [1, 9] | EC50 [4, 10] [nM] | SMILES
0.158 | 209459 | 3473 | 0.08 | 31600 |  |  |  | CC(C)C[C@H](NC(=O)[C@H](Cc1ccccc1)NC(=O)[C@H](CCCNC(=N)N)NC(=O)[C@H](CCC(N)=O)NC(=O)[C@H](CC(C)C)NC(=O)C(C)(C)NC(=O)[C@H](C)NC(=O)[C@H](CCC(=O)O)NC(=O)[C@H](CCC(=O)O)NC(=O)[C@H](CCCCNC(=O)COCCOCCNC(=O)COCCOCCNC(=O)CC[C@H](NC(=O)CCCCCCCCCCCCCCCCCCC(=O)O)C(=O)O)NC(=O)[C@H](CC(C)C)NC(=O)[C@H](Cc1ccc(O)cc1)NC(=O)[C@H](CO)NC(=O)[C@@H](NC(=O)[C@H](CC(=O)O)NC(=O)[C@H](CO)NC(=O)[C@@H](NC(=O)[C@H](Cc1ccccc1)NC(=O)[C@@H](NC(=O)CNC(=O)[C@H](Cc1c[nH]cn1)NC(=O)C(C)(C)NC(=O)[C@@H](N)Cc1c[nH]cn1)[C@@H](C)O)[C@@H](C)O)C(C)C)C(=O)N[C@@H](CCC(=O)O)C(=O)N[C@@H](Cc1c[nH]cn1)C(=O)N[C@@H](CC(C)C)C(=O)N[C@H](C(N)=O)C(C)C [compound 171] (H-H[Aib]HGTFTSDVSYLK([AEEA-AEEA-γGlu-C20 diacid])EEA[Aib]LQRFLEHLV-NH2)
2.51 | 17452 | 24767 | 0.08 | 39800 |  |  |  | CC(C)C[C@H](NC(=O)[C@H](Cc1ccccc1)NC(=O)[C@H](CCCNC(=N)N)NC(=O)[C@H](CCC(N)=O)NC(=O)[C@H](CC(C)C)NC(=O)C(C)(C)NC(=O)[C@H](C)NC(=O)[C@H](CCC(=O)O)NC(=O)[C@H](CCC(=O)O)NC(=O)[C@H](CCCCNC(=O)COCCOCCNC(=O)COCCOCCNC(=O)CC[C@H](NC(=O)CCCCCCCCCCCCCCCCCCC(=O)O)C(=O)O)NC(=O)[C@H](CC(C)C)NC(=O)[C@H](Cc1ccc(O)cc1)NC(=O)[C@H](CO)NC(=O)[C@@H]1CCCN1C(=O)[C@H](CC(=O)O)NC(=O)[C@H](CO)NC(=O)[C@@H](NC(=O)[C@H](Cc1ccccc1)NC(=O)[C@@H](NC(=O)CNC(=O)[C@H](CCC(=O)O)NC(=O)C(C)(C)NC(=O)[C@@H](N)Cc1c[nH]cn1)[C@@H](C)O)[C@@H](C)O)C(=O)N[C@@H](CCC(=O)O)C(=O)N[C@@H](Cc1c[nH]cn1)C(=O)N[C@@H](CC(C)C)C(=O)N[C@H](C(N)=O)C(C)C [compound 121] (H-H[Aib]EGTFTSDPSYLK([AEEA-AEEA-γGlu-C20 diacid])EEA[Aib]LQRFLEHLV-NH2)
 |  | 48618 | 1.04 |  | 0.0126 | 478 | 6.31 | CC[C@H](C)[C@H](NC(=O)[C@H](Cc1ccccc1)NC(=O)[C@H](CCCNC(=N)N)NC(=O)[C@H](CCC(N)=O)NC(=O)[C@H](CC(C)C)NC(=O)[C@H](C)NC(=O)[C@H](C)NC(=O)CNC(=O)[C@H](CCC(=O)O)NC(=O)[C@H](CC(C)C)NC(=O)[C@H](CC(C)C)NC(=O)[C@H](CCCNC(=N)N)NC(=O)[C@H](CO)NC(=O)[C@H](Cc1c[nH]c2ccccc12)NC(=O)[C@H](CC(=O)O)NC(=O)[C@H](CO)NC(=O)[C@@H](NC(=O)[C@H](Cc1ccccc1)NC(=O)[C@@H](NC(=O)CNC(=O)[C@H](CCC(=O)O)NC(=O)C(C)(C)NC(=O)[C@@H](N)Cc1c[nH]cn1)[C@@H](C)O)[C@@H](C)O)C(=O)N[C@@H](CCC(N)=O)C(=O)N[C@@H](Cc1c[nH]c2ccccc12)C(=O)N[C@@H](CC(C)C)C(=O)N[C@H](C(N)=O)C(C)C [compound 186] (H-H[Aib]EGTFTSDWSRLLEGAALQRFIQWLV-NH2)
0.00501 | 22241 | 4491 | 0.09 | 126 |  |  |  | CC(C)C[C@H](NC(=O)[C@H](Cc1c[nH]c2ccccc12)NC(=O)[C@H](CCCNC(=N)N)NC(=O)[C@H](CCC(N)=O)NC(=O)[C@H](CC(C)C)NC(=O)C(C)(C)NC(=O)[C@H](C)NC(=O)[C@H](CCC(=O)O)NC(=O)[C@H](CCC(=O)O)NC(=O)[C@H](CCCCNC(=O)COCCOCCNC(=O)COCCOCCNC(=O)CC[C@H](NC(=O)CCCCCCCCCCCCCCCCCCC(=O)O)C(=O)O)NC(=O)[C@H](CC(C)C)NC(=O)[C@H](Cc1ccc(O)cc1)NC(=O)[C@H](CO)NC(=O)[C@@H](NC(=O)[C@H](CC(=O)O)NC(=O)[C@H](CO)NC(=O)[C@@H](NC(=O)[C@H](Cc1ccccc1)NC(=O)[C@@H](NC(=O)CNC(=O)[C@H](CCC(=O)O)NC(=O)C(C)(C)NC(=O)[C@@H](N)Cc1c[nH]cn1)[C@@H](C)O)[C@@H](C)O)C(C)C)C(=O)N[C@@H](CCC(=O)O)C(=O)N[C@@H](Cc1c[nH]cn1)C(=O)N[C@@H](CC(C)C)C(=O)N[C@H](C(N)=O)C(C)C [compound 135] (H-H[Aib]EGTFTSDVSYLK([AEEA-AEEA-γGlu-C20 diacid])EEA[Aib]LQRWLEHLV-NH2)
0.02 | 840427 | 10160 | 0.08 | 15800 |  |  |  | CC(C)C[C@H](NC(=O)[C@H](Cc1ccccc1)NC(=O)[C@H](CCCNC(=N)N)NC(=O)[C@H](CCC(N)=O)NC(=O)[C@H](CCC(=O)O)NC(=O)[C@H](C)NC(=O)[C@H](C)NC(=O)[C@H](CCC(=O)O)NC(=O)[C@H](CCC(=O)O)NC(=O)[C@H](CCCCNC(=O)COCCOCCNC(=O)COCCOCCNC(=O)CC[C@H](NC(=O)CCCCCCCCCCCCCCCCCCC(=O)O)C(=O)O)NC(=O)[C@H](CC(C)C)NC(=O)[C@H](Cc1ccc(O)cc1)NC(=O)[C@H](CO)NC(=O)[C@@H](NC(=O)[C@H](CC(=O)O)NC(=O)[C@H](CO)NC(=O)[C@@H](NC(=O)[C@H](Cc1ccccc1)NC(=O)[C@@H](NC(=O)CNC(=O)[C@H](CCC(=O)O)NC(=O)C(C)(C)NC(=O)[C@@H](N)Cc1c[nH]cn1)[C@@H](C)O)[C@@H](C)O)C(C)C)C(=O)N[C@@H](CCC(=O)O)C(=O)N[C@@H](Cc1c[nH]cn1)C(=O)N[C@@H](CC(C)C)C(=O)N[C@H](C(N)=O)C(C)C [compound 95] (H-H[Aib]EGTFTSDVSYLK([AEEA-AEEA-γGlu-C20 diacid])EEAAEQRFLEHLV-NH2)
 |  | 7498 | 0.21 |  | 0.0158 | 492 | 7.94 | CC[C@H](C)[C@H](NC(=O)[C@H](Cc1ccccc1)NC(=O)[C@H](CCCNC(=N)N)NC(=O)[C@H](CCC(N)=O)NC(=O)[C@H](CC(C)C)NC(=O)[C@H](C)NC(=O)[C@H](C)NC(=O)CNC(=O)[C@H](CCC(=O)O)NC(=O)[C@H](CC(C)C)NC(=O)[C@H](CC(C)C)NC(=O)C(C)(C)NC(=O)[C@H](CO)NC(=O)[C@H](Cc1ccc(O)cc1)NC(=O)[C@H](CC(=O)O)NC(=O)[C@H](CO)NC(=O)[C@@H](NC(=O)[C@H](Cc1ccccc1)NC(=O)[C@@H](NC(=O)CNC(=O)[C@H](CCC(=O)O)NC(=O)C(C)(C)NC(=O)[C@@H](N)Cc1c[nH]cn1)[C@@H](C)O)[C@@H](C)O)C(=O)N[C@@H](CCC(N)=O)C(=O)N[C@@H](Cc1c[nH]c2ccccc12)C(=O)N[C@@H](CC(C)C)C(=O)N[C@H](C(N)=O)C(C)C [compound 197] (H-H[Aib]EGTFTSDYS[Aib]LLEGAALQRFIQWLV-NH2)
2.51 | 2086 | 1370 | 0.12 | 5010 |  |  |  | CC[C@H](C)[C@H](NC(=O)[C@H](Cc1ccccc1)NC(=O)[C@H](CCCNC(=N)N)NC(=O)[C@H](CCC(N)=O)NC(=O)[C@H](CC(C)C)NC(=O)[C@H](C)NC(=O)[C@H](C)NC(=O)CNC(=O)[C@H](CCC(=O)O)NC(=O)[C@H](CC(C)C)NC(=O)[C@H](CC(C)C)NC(=O)[C@H](CCCNC(=N)N)NC(=O)[C@H](CO)NC(=O)[C@@H]1CCCN1C(=O)[C@H](CC(=O)O)NC(=O)[C@H](CO)NC(=O)[C@@H](NC(=O)[C@H](Cc1ccccc1)NC(=O)[C@@H](NC(=O)CNC(=O)[C@H](CCC(=O)O)NC(=O)C(C)(C)NC(=O)[C@@H](N)Cc1c[nH]cn1)[C@@H](C)O)[C@@H](C)O)C(=O)N[C@@H](CCC(N)=O)C(=O)N[C@@H](Cc1c[nH]c2ccccc12)C(=O)N[C@@H](CC(C)C)C(=O)N[C@H](C(N)=O)C(C)C [compound 124] (H-H[Aib]EGTFTSDPSRLLEGAALQRFIQWLV-NH2)
